SMILES strings stand for the structures.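 Dose response: 5 concentrations. Exposure: 48 h. Format: 96-well plates. Endpoint: linear interpolation; highest concentration if not reached. Here, GI50 denotes the concentration required for 50% inhibition of growth.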 Active and inactive are the calls of the source. Cut-off read from the data, not from the text of the source: active = GI50 up to about 1.1 µM and inactive = higher. Where only a bound is given, the exact number is not on record here.

Common to all, as to experiment: NCI tumour cell line growth inhibition, 48 h
The subject of test [1] is IGROV-1.
Test [2] deals with CAKI-1.
In test [3] the test system is CCRF-CEM.
Test [4] relates to HCT-116.
The test system of test [5] is K562.
For test [6], the system named is Hs-578T.
Test [7] concerns U-251.
For test [8], the system named is ACHN.
The test system of test [9] is SK-MEL-28.
Test [10] has as its system HL-60.
The test system of test [11] is 786-0.
Test [12] has as its system RPMI-8226.
Test [13] deals with HOP-92.
Test [14] has as its system MDA-N.
In test [15] the test system is SN12C.
Test [16] concerns OVCAR-5.
Test [17] relates to LOX IMVI.
For test [18], the system named is SF-539.
The test system of test [19] is HOP-62.
Test [20] relates to OVCAR-3.

As to `O=c1[nH]c(-n2[nH]c3c(c2=O)CCCC3)nc(O)c1-c1ccccc1`, the GI50 in [1], in [2], in test [3], in test [4], in test [5] and in test [6] was > 100 µM (inactive) throughout. The GI50 in [7], in test [8], in test [9], in test [10], in [11] and in test [12] was > 100 µM (inactive) each time. Further, the GI50 in [13], in test [14], in [15] and in [16] was > 100 µM (inactive) each time.
`C1COCCN1.CN(C)c1ccc(-c2c(C#N)c(N)nc(S)c2C#N)cc1`: the GI50 was 40.1 µM (inactive) in [1]; 43.9 µM (inactive) in test [2]; 80.2 µM (inactive) in test [17]; 38.5 µM (inactive) in test [3]; > 100 µM (inactive) in test [4]; > 100 µM (inactive) in test [5]. For the same compound, the GI50 in test [6] was 4.57 µM (inactive); in [7], > 100 µM (inactive); in test [8] it was > 100 µM (inactive); in test [9] it was 82.6 µM (inactive); in test [10] it was > 100 µM (inactive); in test [11], > 100 µM (inactive). Also, the GI50 in test [18] is > 100 µM (inactive); in test [19] it was 87.3 µM (inactive); in test [13], 21.8 µM (inactive); in test [20] it was > 100 µM (inactive); in [14] it was 54.1 µM (inactive); in test [15] it was 66.2 µM (inactive). In [16], the GI50 is > 100 µM (inactive).
Consider `C=C(C(N)=O)c1ccc([N+](=O)[O-])o1`, for which the GI50 is 10.6 µM (inactive) in test [1]; 3.4 µM (inactive) in test [2]; 10.1 µM (inactive) in test [17]; 3.22 µM (inactive) in test [3]; 3.97 µM (inactive) in test [4]; 3.61 µM (inactive) in test [5]. In addition, the GI50 in test [6] was 36.4 µM (inactive); in test [7], 15.6 µM (inactive); in [8], 2.89 µM (inactive); in test [9] it was 2.67 µM (inactive); in [10], 3.16 µM (inactive); in test [11], 11.2 µM (inactive). The GI50 in test [18] was 12.6 µM (inactive); in test [19] it was 22.8 µM (inactive); in test [13] it was 6.49 µM (inactive); in test [20], 8.36 µM (inactive); in test [14] it was 3 µM (inactive); in [15] it was 10.3 µM (inactive). In addition, the GI50 in [16] was 18.7 µM (inactive).
For `O=c1[nH]c(=O)n(C2CC(O)C(CO)O2)cc1C1=NC1` (stereo not drawn), the GI50 in [1], in [4], in test [6], in test [7], in [8] and in test [9] was > 100 µM (inactive) throughout. Moreover, the GI50 in test [11] is > 100 µM (inactive); in test [18] it was > 100 µM (inactive); in test [12], 50.6 µM (inactive); in test [19] it was > 100 µM (inactive); in test [13], > 100 µM (inactive); in test [20], > 100 µM (inactive). Also, the GI50 in test [14], in [15] and in test [16] was > 100 µM (inactive) each time.
Consider `Cc1cc(C)c2c(=O)n(CC(O)CN3CCN(CCOCCO)CC3)sc2n1` (stereo not drawn), for which the GI50 is 43.9 µM (inactive) in test [1]; > 100 µM (inactive) in test [2]; 18.8 µM (inactive) in [17]; 11.4 µM (inactive) in test [3]; 17.1 µM (inactive) in test [4]; 37.3 µM (inactive) in [5]. The GI50 was 28.5 µM (inactive) in test [6]; 18.1 µM (inactive) in [7]; 20 µM (inactive) in [8]; 17.2 µM (inactive) in test [9]; 20.5 µM (inactive) in test [10]; 16.9 µM (inactive) in test [11]. The GI50 was 20 µM (inactive) in [18]; 28.4 µM (inactive) in test [19]; 19.4 µM (inactive) in test [13]; 22.4 µM (inactive) in test [20]; 15.6 µM (inactive) in test [14]; 18.4 µM (inactive) in test [15]. In addition, the GI50 in test [16] is 18.9 µM (inactive).
On to `Cc1ccc2c(c1)C(=O)N1CCC[C@H]1C=N2`, for which the GI50 in test [1] was 14.3 µM (inactive); in test [2], 15.6 µM (inactive); in test [17], 23.6 µM (inactive); in [3], 4.02 µM (inactive); in test [4], 30 µM (inactive); in test [5], 7.76 µM (inactive). For the same compound, the GI50 was 15.3 µM (inactive) in [6]; 16.3 µM (inactive) in test [7]; 15 µM (inactive) in test [8]; 22.7 µM (inactive) in test [9]; 27.1 µM (inactive) in test [11]; 18.3 µM (inactive) in test [18]. For the same compound, the GI50 is 10.1 µM (inactive) in test [12]; 27.7 µM (inactive) in test [19]; 25.5 µM (inactive) in [13]; 19.1 µM (inactive) in [20]; 19.2 µM (inactive) in [14]; 23 µM (inactive) in test [15]. The GI50 in test [16] is 28.4 µM (inactive).
For the compound `O=C(CCc1cccc(O)c1)NCCc1cccc(O)c1`, the GI50 in test [1], in test [2], in [17], in test [3], in test [4] and in test [5] was > 100 µM (inactive) throughout. Moreover, the GI50 in test [6], in [7], in [8], in test [9], in [10] and in test [11] was > 100 µM (inactive) throughout. The GI50 in [18], in test [19], in test [13], in test [20], in test [14] and in test [15] was > 100 µM (inactive) in each case. The GI50 in test [16] was > 100 µM (inactive).
In the case of `Cc1cnoc1NS(=O)(=O)c1ccc(Nc2nnc(/C=C/c3c(O)ccc4ccccc34)c(=O)n2N)cc1`, the GI50 in test [1] is 12.8 µM (inactive); in test [2], 27.5 µM (inactive); in [17], 19.1 µM (inactive); in test [3], 10.9 µM (inactive); in test [4] it was 22 µM (inactive); in test [5], 24.2 µM (inactive). In addition, the GI50 in test [6] was 29.2 µM (inactive); in test [8] it was 22.2 µM (inactive); in [10], 0.74 µM (active); in [11], 35.1 µM (inactive); in test [12] it was 20.2 µM (inactive); in [19], 46 µM (inactive). The GI50 in [13] is 41.3 µM (inactive); in test [20], 17.3 µM (inactive); in test [14] it was 25.4 µM (inactive); in test [15], 29.4 µM (inactive); in test [16], 40.1 µM (inactive).
